PubChem BioAssay AID2060486 (Molecular Pharmacology Branch, DTP, NCI, 2025)
pIC50: −log10 of the molar value.

Tested on: IGROV1 complex spheroids (HUVEC, MSC), viability % test/control
Assay: Anticancer human tumor IGROV1 cell line growth inhibition [GQUAD];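 also: spheroids exposed to compounds for 7 days before readout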;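 as to viability, T/C: 100% = DMSO vehicle control viability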
Conditions: for pIC50: curve of first compound; for viability, T/C: stronger effect = lower value; active = viability on the fitted dose curve at most 10% of control; inactive = the rest
Procedure, shortened: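 Viability of tumor cells grown as complex spheroids with endothelial and stromal cells, exposed to drug combinations. Top concentration at or near clinical Cmax (else 10 microM), diluted in half-log increments.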

[1] = second compound 0.0316 µM, first compound 0.0316 µM
[2] = second compound 0.0316 µM, first compound 0.1 µM
[3] = second compound 0.0316 µM, first compound 0.316 µM
[4] = second compound 0.0316 µM, first compound 1 µM
[5] = second compound 0.0316 µM, first compound 3.16 µM
[6] = second compound 0.0316 µM, first compound 10 µM
[7] = second compound 0.1 µM, first compound 0.0316 µM
[8] = second compound 0.1 µM, first compound 0.1 µM
[9] = second compound 0.1 µM, first compound 0.316 µM
[10] = second compound 0.1 µM, first compound 1 µM
[11] = second compound 0.1 µM, first compound 3.16 µM
[12] = second compound 0.1 µM, first compound 10 µM
[13] = second compound 0.316 µM, first compound 0.0316 µM
[14] = second compound 0.316 µM, first compound 0.1 µM
[15] = second compound 0.316 µM, first compound 0.316 µM
[16] = second compound 0.316 µM, first compound 1 µM
[17] = second compound 0.316 µM, first compound 3.16 µM
[18] = second compound 0.316 µM, first compound 10 µM
[19] = second compound 1 µM, first compound 0.0316 µM
[20] = second compound 1 µM, first compound 0.1 µM
[21] = second compound 1 µM, first compound 0.316 µM
[22] = second compound 1 µM, first compound 1 µM
[23] = second compound 1 µM, first compound 3.16 µM
[24] = second compound 1 µM, first compound 10 µM
[25] = second compound 3.16 µM, first compound 0.0316 µM
[26] = second compound 3.16 µM, first compound 0.1 µM
[27] = second compound 3.16 µM, first compound 0.316 µM
[28] = second compound 3.16 µM, first compound 1 µM
[29] = second compound 3.16 µM, first compound 3.16 µM
[30] = second compound 3.16 µM, first compound 10 µM
[31] = second compound 10 µM, first compound 0.0316 µM
[32] = second compound 10 µM, first compound 0.1 µM
[33] = second compound 10 µM, first compound 0.316 µM
[34] = second compound 10 µM, first compound 1 µM
[35] = second compound 10 µM, first compound 3.16 µM
[36] = second compound 10 µM, first compound 10 µM

Cc1cccc(N(C)C(=O)C2C(O)CCN2c2nc(C)cc(C(F)(F)F)c2C#N)c1 (stereo unspecified) + CN(C)c1ccc(Nc2c3ccc(NC(=O)CCN4CCCC4)cc3nc3cc(NC(=O)CCN4CCCC4)ccc23)cc1
inactive: viability, T/C [1] 101% | viability, T/C [2] 75.8% | viability, T/C [3] 85.2% | viability, T/C [4] 77.5% | viability, T/C [5] 92.5% | viability, T/C [6] 97.1% | viability, T/C [7] 93.9% | viability, T/C [8] 83.2% | viability, T/C [9] 86.9% | viability, T/C [10] 79.9% | viability, T/C [11] 95.5% | viability, T/C [12] 93.1% | viability, T/C [13] 99.1% | viability, T/C [14] 79.5% | viability, T/C [15] 88.5% | viability, T/C [16] 70.6% | viability, T/C [17] 88.9% | viability, T/C [18] 96.2% | viability, T/C [19] 86.2% | viability, T/C [20] 90.6% | viability, T/C [21] 71% | viability, T/C [22] 84.5% | viability, T/C [23] 89.3% | viability, T/C [24] 84.7% | viability, T/C [25] 83.1% | viability, T/C [26] 85.2% | viability, T/C [27] 82.2% | viability, T/C [28] 64% | viability, T/C [29] 71% | viability, T/C [30] 33.9% | viability, T/C [31] 43.5% | viability, T/C [32] 50.3% | viability, T/C [33] 34.3% | viability, T/C [34] 35% | viability, T/C [35] 25.7% | viability, T/C [36] 11.7%
5.26: pIC50 (second compound 3.16 µM)
> 7.50: pIC50 (second compound 10 µM)
< 5.00: pIC50 (second compound 0.0316 µM) | pIC50 (second compound 0.1 µM) | pIC50 (second compound 0.316 µM) | pIC50 (second compound 1 µM)

Cn1ncnc1[C@H]1c2n[nH]c(=O)c3cc(F)cc(c23)N[C@@H]1c1ccc(F)cc1 + CN(C)c1ccc(Nc2c3ccc(NC(=O)CCN4CCCC4)cc3nc3cc(NC(=O)CCN4CCCC4)ccc23)cc1
7.37: pIC50 (second compound 0.1 µM)
7.25: pIC50 (second compound 3.16 µM)
6.90: pIC50 (second compound 0.316 µM)
7.03: pIC50 (second compound 1 µM)
inactive: viability, T/C (second compound 0.0316 µM, first compound 0.000999 µM) 99.9% | viability, T/C (second compound 0.0316 µM, first compound 0.00316 µM) 88.4% | viability, T/C (second compound 0.0316 µM, first compound 0.00999 µM) 95.1% | viability, T/C [1] 57% | viability, T/C (second compound 0.0316 µM, first compound 0.0999 µM) 58.4% | viability, T/C [3] 40.1% | viability, T/C (second compound 0.1 µM, first compound 0.000999 µM) 101% | viability, T/C (second compound 0.1 µM, first compound 0.00316 µM) 82.3% | viability, T/C (second compound 0.1 µM, first compound 0.00999 µM) 68.2% | viability, T/C [7] 46.2% | viability, T/C (second compound 0.1 µM, first compound 0.0999 µM) 49.7% | viability, T/C [9] 35.9% | viability, T/C (second compound 0.316 µM, first compound 0.000999 µM) 95.7% | viability, T/C (second compound 0.316 µM, first compound 0.00316 µM) 77.7% | viability, T/C (second compound 0.316 µM, first compound 0.00999 µM) 81.3% | viability, T/C [13] 52.2% | viability, T/C (second compound 0.316 µM, first compound 0.0999 µM) 61.5% | viability, T/C [15] 38.4% | viability, T/C (second compound 1 µM, first compound 0.000999 µM) 90.6% | viability, T/C (second compound 1 µM, first compound 0.00316 µM) 79% | viability, T/C (second compound 1 µM, first compound 0.00999 µM) 64.9% | viability, T/C [19] 65.4% | viability, T/C (second compound 1 µM, first compound 0.0999 µM) 57% | viability, T/C [21] 28.8% | viability, T/C (second compound 3.16 µM, first compound 0.000999 µM) 86.2% | viability, T/C (second compound 3.16 µM, first compound 0.00316 µM) 79.4% | viability, T/C (second compound 3.16 µM, first compound 0.00999 µM) 70.6% | viability, T/C [25] 58.1% | viability, T/C (second compound 3.16 µM, first compound 0.0999 µM) 42.1% | viability, T/C [27] 29.6% | viability, T/C (second compound 10 µM, first compound 0.000999 µM) 47.8% | viability, T/C (second compound 10 µM, first compound 0.00316 µM) 40.2% | viability, T/C (second compound 10 µM, first compound 0.00999 µM) 35.8% | viability, T/C [31] 35.1% | viability, T/C (second compound 10 µM, first compound 0.0999 µM) 26.9% | viability, T/C [33] 19.2%
7.05: pIC50 (second compound 0.0316 µM)
> 9.00: pIC50 (second compound 10 µM)

O=c1[nH]cc(F)c(=O)[nH]1 + CN(C)c1ccc(Nc2c3ccc(NC(=O)CCN4CCCC4)cc3nc3cc(NC(=O)CCN4CCCC4)ccc23)cc1
5.23: pIC50 (second compound 1 µM)
5.19: pIC50 (second compound 0.0316 µM) | pIC50 (second compound 0.316 µM)
5.43: pIC50 (second compound 10 µM)
inactive: viability, T/C [1] 112% | viability, T/C [2] 96.7% | viability, T/C [3] 104% | viability, T/C [4] 82.3% | viability, T/C [5] 90.6% | viability, T/C [6] 27.7% | viability, T/C [7] 97.6% | viability, T/C [8] 94% | viability, T/C [9] 83.1% | viability, T/C [10] 84.3% | viability, T/C [11] 90.4% | viability, T/C [12] 29.8% | viability, T/C [13] 92.1% | viability, T/C [14] 87.8% | viability, T/C [15] 96.8% | viability, T/C [16] 88.2% | viability, T/C [17] 83% | viability, T/C [18] 29.1% | viability, T/C [19] 69.5% | viability, T/C [20] 72% | viability, T/C [21] 78.8% | viability, T/C [22] 90.8% | viability, T/C [23] 90.4% | viability, T/C [24] 24.2% | viability, T/C [25] 73.3% | viability, T/C [26] 84.8% | viability, T/C [27] 94.1% | viability, T/C [28] 86.2% | viability, T/C [29] 81% | viability, T/C [30] 27.7% | viability, T/C [31] 66.5% | viability, T/C [32] 58% | viability, T/C [33] 52.8% | viability, T/C [34] 70.1% | viability, T/C [35] 55.2% | viability, T/C [36] 16.4%
5.17: pIC50 (second compound 0.1 µM)
5.21: pIC50 (second compound 3.16 µM)
